The values that follow come from patent publication US8106048B2, “Heterocyclic NF-κB inhibitors” (4SC AG, priority 2004, dated 2012).

In this assay the test system is A549-NF-κB-SEAP reporter cells. Put plainly: Inhibition of NF-κB-induced inflammation: […] NINA Instant Assay, TNF-α stimulated SEAP reporter. The assay is classed as cell-based. The conditions noted are these: % inhibition classes. In short, it runs like this:
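A549 cells carrying an NF-κB-driven SEAP reporter were pretreated with compound (0.01–100 μM) for 4.5 h, then stimulated with 2 ng/ml TNF-α for 22 h. After inactivation of endogenous phosphatases, SEAP activity was read by CSPD chemiluminescence (40 min). EC50 values were fitted from quadruplicate data points.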

As to `O=C(Cc1ccc(F)cc1)N1CCC(c2nc(C(=O)N3CCN(c4ccccc4)CC3)cs2)CC1` [compound 180], the “Biological activity (inhibition in the NF-κB inflammation assay)” value is listed as “+ (“+” stands for 50-80% inhibition)”.

With `O=C(Cc1ccc(F)cc1)N1CCC(c2nc(C(=O)N3CCC(n4nnc5cc(C(F)(F)F)ccc54)CC3)cs2)CC1` [compound 181], the “Biological activity (inhibition in the NF-κB inflammation assay)” value is listed as “+ (“+” stands for 50-80% inhibition)”.

As for `O=C(Cc1ccc(F)cc1)N1CCC(c2nc(C(=O)N3CCC(n4nnc5ccccc54)CC3)cs2)CC1` [compound 182], the “Biological activity (inhibition in the NF-κB inflammation assay)” value is “+ (“+” stands for 50-80% inhibition)”.

As for `O=C(O)c1cccnc1C(=O)N1CCC(c2nc(C(=O)N3CCN(c4cccc(C(F)(F)F)c4)CC3)cs2)CC1` [compound 183], the “Biological activity (inhibition in the NF-κB inflammation assay)” value is “+ (“+” stands for 50-80% inhibition)”.

For the compound `O=C(O)c1ccc(C(=O)O)c(C(=O)N2CCC(c3nc(C(=O)N4CCN(c5cccc(C(F)(F)F)c5)CC4)cs3)CC2)c1` [compound 184], the “Biological activity (inhibition in the NF-κB inflammation assay)” value is listed as “+ (“+” stands for 50-80% inhibition)”.

For the compound `O=C(O)c1ccccc1C(=O)N1CCC(c2nc(C(=O)N3CCN(c4cccc(C(F)(F)F)c4)CC3)cs2)CC1` [compound 185], the “Biological activity (inhibition in the NF-κB inflammation assay)” value was “+ (“+” stands for 50-80% inhibition)”.

In the case of `O=C(O)c1cccc(O)c1C(=O)N1CCC(c2nc(C(=O)N3CCN(c4cccc(C(F)(F)F)c4)CC3)cs2)CC1` [compound 186], the “Biological activity (inhibition in the NF-κB inflammation assay)” value is reported as “+ (“+” stands for 50-80% inhibition)”.

Take `O=C(O)c1cc(Cl)c(Cl)cc1C(=O)N1CCC(c2nc(C(=O)N3CCN(c4cccc(C(F)(F)F)c4)CC3)cs2)CC1` [compound 187]: the “Biological activity (inhibition in the NF-κB inflammation assay)” value is “+ (“+” stands for 50-80% inhibition)”.

For `O=C(O)C1=C(C(=O)N2CCC(c3nc(C(=O)N4CCN(c5cccc(C(F)(F)F)c5)CC4)cs3)CC2)CCC1` [compound 188], the “Biological activity (inhibition in the NF-κB inflammation assay)” value is recorded as “+ (“+” stands for 50-80% inhibition)”.

On to `O=C(O)C1CCCCC1C(=O)N1CCC(c2nc(C(=O)N3CCN(c4cccc(C(F)(F)F)c4)CC3)cs2)CC1` (stereo not drawn) [compound 189], for which the “Biological activity (inhibition in the NF-κB inflammation assay)” value was “+ (“+” stands for 50-80% inhibition)”.

For the compound `O=C(O)C1=C(C(=O)N2CCC(c3nc(C(=O)N4CCN(c5cccc(C(F)(F)F)c5)CC4)cs3)CC2)CCCC1` [compound 190], the “Biological activity (inhibition in the NF-κB inflammation assay)” value is listed as “+ (“+” stands for 50-80% inhibition)”.

For the compound `O=C(O)C=CC(=O)N1CCC(c2nc(C(=O)N3CCN(c4cccc(C(F)(F)F)c4)CC3)cs2)CC1` [compound 191], the “Biological activity (inhibition in the NF-κB inflammation assay)” value is recorded as “+ (“+” stands for 50-80% inhibition)”.

Turning to `Cc1noc(C)c1S(=O)(=O)N1CCC(c2nc(C(=O)N3CCN(c4cccc(C(F)(F)F)c4)CC3)cs2)CC1` [compound 192], the “Biological activity (inhibition in the NF-κB inflammation assay)” value is “+ (“+” stands for 50-80% inhibition)”.

As to `O=C(c1csc(C2CCN(S(=O)(=O)c3c(F)c(F)c(F)c(F)c3F)CC2)n1)N1CCN(c2cccc(C(F)(F)F)c2)CC1` [compound 193], the “Biological activity (inhibition in the NF-κB inflammation assay)” value was “+ (“+” stands for 50-80% inhibition)”.

In the case of `O=C(c1csc(C2CCN(S(=O)(=O)c3cccs3)CC2)n1)N1CCN(c2cccc(C(F)(F)F)c2)CC1` [compound 194], the “Biological activity (inhibition in the NF-κB inflammation assay)” value is reported as “+ (“+” stands for 50-80% inhibition)”.

`O=C(c1csc(C2CCN(S(=O)(=O)c3ccc(F)cc3Cl)CC2)n1)N1CCN(c2cccc(C(F)(F)F)c2)CC1` [compound 195]: the “Biological activity (inhibition in the NF-κB inflammation assay)” value is “+ (“+” stands for 50-80% inhibition)”.

Consider `O=C(c1csc(C2CCN(S(=O)(=O)c3ccccc3Br)CC2)n1)N1CCN(c2cccc(C(F)(F)F)c2)CC1` [compound 196], for which the “Biological activity (inhibition in the NF-κB inflammation assay)” value is reported as “+ (“+” stands for 50-80% inhibition)”.

On to `O=C(c1csc(C2CCN(S(=O)(=O)c3c(Cl)nc4sccn34)CC2)n1)N1CCN(c2cccc(C(F)(F)F)c2)CC1` [compound 197], for which the “Biological activity (inhibition in the NF-κB inflammation assay)” value is “+ (“+” stands for 50-80% inhibition)”.

`O=C(c1csc(C2CCN(S(=O)(=O)Cc3ccccc3)CC2)n1)N1CCN(c2cccc(C(F)(F)F)c2)CC1` [compound 198]: the “Biological activity (inhibition in the NF-κB inflammation assay)” value was “+ (“+” stands for 50-80% inhibition)”.

Consider `O=C(c1csc(C2CCN(S(=O)(=O)c3ccc(Br)cc3)CC2)n1)N1CCN(c2cccc(C(F)(F)F)c2)CC1` [compound 199], for which the “Biological activity (inhibition in the NF-κB inflammation assay)” value is “+ (“+” stands for 50-80% inhibition)”.

For `O=C(c1csc(C2CCN(S(=O)(=O)c3ccc(Cl)cc3Cl)CC2)n1)N1CCN(c2cccc(C(F)(F)F)c2)CC1` [compound 200], the “Biological activity (inhibition in the NF-κB inflammation assay)” value is recorded as “×”.

For the compound `O=C(c1csc(C2CCN(S(=O)(=O)c3cc(C(F)(F)F)cc(C(F)(F)F)c3)CC2)n1)N1CCN(c2cccc(C(F)(F)F)c2)CC1` [compound 201], the “Biological activity (inhibition in the NF-κB inflammation assay)” value is reported as “++ (“++” means 80-90%)”.

Take `COc1ccc(Cl)cc1S(=O)(=O)N1CCC(c2nc(C(=O)N3CCN(c4cccc(C(F)(F)F)c4)CC3)cs2)CC1` [compound 202]: the “Biological activity (inhibition in the NF-κB inflammation assay)” value was “++ (“++” means 80-90%)”.

Regarding `O=C(c1csc(C2CCN(S(=O)(=O)c3ccc(Br)s3)CC2)n1)N1CCN(c2cccc(C(F)(F)F)c2)CC1` [compound 203], the “Biological activity (inhibition in the NF-κB inflammation assay)” value was “+ (“+” stands for 50-80% inhibition)”.

Regarding `Cc1ccc(S(=O)(=O)N2CCC(c3nc(C(=O)N4CCN(c5cccc(C(F)(F)F)c5)CC4)cs3)CC2)cc1` [compound 204], the “Biological activity (inhibition in the NF-κB inflammation assay)” value was “+ (“+” stands for 50-80% inhibition)”.

As for `O=C(c1csc(C2CCN(S(=O)(=O)c3ccc(OC(F)(F)F)cc3)CC2)n1)N1CCN(c2cccc(C(F)(F)F)c2)CC1` [compound 205], the “Biological activity (inhibition in the NF-κB inflammation assay)” value is reported as “+ (“+” stands for 50-80% inhibition)”.

Take `O=C(c1csc(C2CCN(S(=O)(=O)c3ccc(Cl)cc3)CC2)n1)N1CCN(c2cccc(C(F)(F)F)c2)CC1` [compound 206]: the “Biological activity (inhibition in the NF-κB inflammation assay)” value was “+ (“+” stands for 50-80% inhibition)”.

In the case of `CC(=O)Nc1ccc(S(=O)(=O)N2CCC(c3nc(C(=O)N4CCN(c5cccc(C(F)(F)F)c5)CC4)cs3)CC2)cc1` [compound 207], the “Biological activity (inhibition in the NF-κB inflammation assay)” value is “+ (“+” stands for 50-80% inhibition)”.

`O=C(c1csc(C2CCN(S(=O)(=O)c3ccccc3)CC2)n1)N1CCN(c2cccc(C(F)(F)F)c2)CC1` [compound 208]: the “Biological activity (inhibition in the NF-κB inflammation assay)” value is reported as “+ (“+” stands for 50-80% inhibition)”.

Consider `COc1cccc(C(=O)N2CCC(c3nc(C(=O)N4CCN(c5cccc(C(F)(F)F)c5)CC4)cs3)CC2)c1` [compound 209], for which the “Biological activity (inhibition in the NF-κB inflammation assay)” value was “+ (“+” stands for 50-80% inhibition)”.

In the case of `CN1CCOc2cc(C(=O)N3CCC(c4nc(C(=O)N5CCN(c6cccc(C(F)(F)F)c6)CC5)cs4)CC3)ccc21` [compound 210], the “Biological activity (inhibition in the NF-κB inflammation assay)” value was “++ (“++” means 80-90%)”.

Consider `O=C(c1ccc2nccnc2c1)N1CCC(c2nc(C(=O)N3CCN(c4cccc(C(F)(F)F)c4)CC3)cs2)CC1` [compound 211], for which the “Biological activity (inhibition in the NF-κB inflammation assay)” value is “+ (“+” stands for 50-80% inhibition)”.

For the compound `O=C(c1csc(C2CCN(C(=O)c3cccs3)CC2)n1)N1CCN(c2cccc(C(F)(F)F)c2)CC1` [compound 212], the “Biological activity (inhibition in the NF-κB inflammation assay)” value was “+ (“+” stands for 50-80% inhibition)”.
